{"source": "patent US7893288B2", "about": "“Poly-halogenated triazapentadiene compositions” (Board of Regents, The University of Texas System, priority 2007, dated 2011)", "format_in_all_cases": "cell-based", "key": {"[1]": {"test_system": "Staphylococcus aureus (ATCC 25923)", "assay": "Disk sensitivity test (modified Kirby-Bauer), S. aureus;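 also: Compound-loaded filter disks on LB agar plates seeded with a confluent bacterial lawn, compound dissolved in DMSO, plates kept overnight at 37 °C, then inhibition zone around disk measured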", "experimental": "(§1) Filter disks were provided as sterile filter paper (about 6 mm in diameter) and spotted with 20 μL of a selected compound. Each compound was initially dissolved in dimethylsulfoxide (DMSO); any subsequent dilutions were also made in DMSO. Each filter was placed on an LB agar plate spread with 100 μL of a bacterial culture that had been grown overnight in suitable LB broth. Plates were incubated overnight at 37° C., after which, the extent of growth inhibition around each filter disk was measured. Bacterial strains included Staphylococcus aureus (ATCC 25923), Pseudomonas aeruginosa PAO1, Bacillus subtilis W168 and Escherichia coli HB101. […] The latter two strains are non-pathogenic Gram-positive and Gram-negative bacterial strains, respectively."}, "Bacillus subtilis W168 [2]": {"test_system": "Bacillus subtilis W168", "assay": "Disk sensitivity test (modified Kirby-Bauer), B. subtilis;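 also: Compound-loaded filter disks on LB agar plates seeded with a bacterial lawn, plates held overnight at 37 °C, then the clear zone around each disk measured, compounds in DMSO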", "experimental": "as §1"}, "[3]": {"test_system": "Pseudomonas aeruginosa PAO1", "assay": "Disk sensitivity test (modified Kirby-Bauer), P. aeruginosa;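 also: Compound-loaded filter disks on LB agar lawns, DMSO as solvent, zone of inhibition around each disk read after overnight incubation at 37 °C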", "experimental": "as §1"}, "Escherichia coli HB101 [4]": {"test_system": "Escherichia coli HB101", "assay": "Disk sensitivity test (modified Kirby-Bauer), E. coli;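 also: filter disk loaded with compound in DMSO laid on an LB agar bacterial lawn, kept overnight at 37 °C, then the inhibition zone around the disk is measured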", "experimental": "as §1"}, "[5]": {"test_system": "Staphylococcus aureus (ATCC 25923)", "assay": "Minimum inhibitory concentration in LB broth, S. aureus", "conditions": "for Relative to AgNO3: efficacy per mole from MIC values"}, "Bacillus subtilis W168 [6]": {"test_system": "Bacillus subtilis W168", "assay": "Minimum inhibitory concentration in LB broth, B. subtilis", "conditions": "for Relative to AgNO3: efficacy per mole from MIC values"}, "[7]": {"test_system": "Pseudomonas aeruginosa PAO1", "assay": "Minimum inhibitory concentration in LB broth, P. aeruginosa", "conditions": "for Relative to AgNO3: efficacy per mole from MIC values"}, "Escherichia coli HB101 [8]": {"test_system": "Escherichia coli HB101", "assay": "Minimum inhibitory concentration in LB broth, E. coli;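 also: broth dilution MIC, test compounds first taken up in DMSO, then serially diluted in LB medium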", "conditions": "for Relative to AgNO3: efficacy per mole from MIC values"}, "[9]": {"test_system": "Gram positive and Gram negative bacteria", "assay": "Antimicrobial activity, summary of TABLES 16-18", "procedure": "The new class of fluorinated triazapentadiene compounds with and without metal complexation as described herein were analyzed for antibacterial activity against several bacterial strains (both Gram positive and Gram negative). Methods for antimicrobial analysis included a modified Kirby-Bauer method and a determination of their minimum inhibitory concentrations. In brief, the modified Kirby-Bauer method relied on placement of a filter disk impregnated with a desired compound on a solid growth medium. Bacteria were grown to a confluent lawn and the extent of growth inhibition was measured (e.g., as an extent/percentage of a clear zone on the disk and/or solid medium).\nFor MIC assessment, compounds were initially dissolved in DMSO and serial dilutions of soluble compounds were made in LB broth."}, "[10]": {"conditions": "1.00 × 10^0 μg/ml (printed 5.9 × 10^−6 mM)"}, "[11]": {"conditions": "1.00 × 10^1 μg/ml (5.9 × 10^−5 mM)"}, "[12]": {"conditions": "1.00 × 10^2 μg/ml (5.9 × 10^−4 mM [sic])"}, "[13]": {"conditions": "1.00 × 10^3 μg/ml (printed 5.9 × 10^−3 mM)"}, "[14]": {"conditions": "1.00 × 10^4 μg/ml (printed 5.9 × 10^−2 mM)"}}, "note": "Values joined by “and” are separate entries in the source; they are usually repeats but may differ in a detail not shown here. Identical values can stand only once."}
{"smiles": "Fc1cccc(C(F)(F)F)c1N=C(N=C([N]([Ag])c1c(F)cccc1C(F)(F)F)C(F)(F)C(F)(F)C(F)(F)F)C(F)(F)C(F)(F)C(F)(F)F", "note": "[[N{(C3F7)C(2-F,6-CF3C6H3)N}2]Ag]", "values": [{"measurement": "Diameter of the zone of growth inhibition", "setting": "[1]; 5.7 × 10^0 mM", "value": 14.0, "unit": "mm"}, {"measurement": "Diameter of the zone of growth inhibition", "setting": "[1]; 5.7 × 10^1 mM", "value": 19.0, "unit": "mm"}, {"measurement": "Diameter of the zone of growth inhibition", "setting": "[1]; 5.7 × 10^−1 mM", "value": 9.5, "unit": "mm"}, {"measurement": "Diameter of the zone of growth inhibition", "setting": "[1]; 5.7 × 10^−2 mM", "value": 9.0, "unit": "mm"}, {"measurement": "Diameter of the zone of growth inhibition", "setting": "[1]; 5.7 × 10^−3 mM", "value": 7.5, "unit": "mm"}, {"measurement": "Diameter of the zone of growth inhibition", "setting": "[1]; 5.7 × 10^−4 mM", "value": "6.0 (NZ) mm"}, {"measurement": "Diameter of the zone of growth inhibition", "setting": "[1]; 5.7 × 10^−5 mM", "value": "6.0 (NZ) mm"}, {"measurement": "Diameter of the zone of growth inhibition", "setting": "[1]; 5.7 × 10^−6 mM", "value": "6.0 (NZ) mm"}, {"measurement": "Diameter of the zone of growth inhibition", "setting": "[1]; 5.7 × 10^−7 mM", "value": "6.0 (NZ) mm"}, {"measurement": "Diameter of the zone of growth inhibition", "setting": "Bacillus subtilis W168 [2]; 5.7 × 10^0 mM", "value": 131.0, "unit": "mm"}, {"measurement": "Diameter of the zone of growth inhibition", "setting": "Bacillus subtilis W168 [2]; 5.7 × 10^1 mM", "value": 115.0, "unit": "mm"}, {"measurement": "Diameter of the zone of growth inhibition", "setting": "Bacillus subtilis W168 [2]; 5.7 × 10^−1 mM", "value": 78.0, "unit": "mm"}, {"measurement": "Diameter of the zone of growth inhibition", "setting": "Bacillus subtilis W168 [2]; 5.7 × 10^−2 mM", "value": 39.0, "unit": "mm"}, {"measurement": "Diameter of the zone of growth inhibition", "setting": "Bacillus subtilis W168 [2]; 5.7 × 10^−3 mM", "value": 10.0, "unit": "mm"}, {"measurement": "Diameter of the zone of growth inhibition", "setting": "Bacillus subtilis W168 [2]; 5.7 × 10^−4 mM", "value": 10.0, "unit": "mm"}, {"measurement": "Diameter of the zone of growth inhibition", "setting": "Bacillus subtilis W168 [2]; 5.7 × 10^−5 mM", "value": 9.0, "unit": "mm"}, {"measurement": "Diameter of the zone of growth inhibition", "setting": "Bacillus subtilis W168 [2]; 5.7 × 10^−6 mM", "value": 9.0, "unit": "mm"}, {"measurement": "Diameter of the zone of growth inhibition", "setting": "Bacillus subtilis W168 [2]; 5.7 × 10^−7 mM", "value": 7.5, "unit": "mm"}, {"measurement": "Diameter of the zone of growth inhibition", "setting": "[3]; 5.7 × 10^0 mM", "value": 15.0, "unit": "mm"}, {"measurement": "Diameter of the zone of growth inhibition", "setting": "[3]; 5.7 × 10^1 mM", "value": 23.5, "unit": "mm"}, {"measurement": "Diameter of the zone of growth inhibition", "setting": "[3]; 5.7 × 10^−1 mM", "value": 9.0, "unit": "mm"}, {"measurement": "Diameter of the zone of growth inhibition", "setting": "[3]; 5.7 × 10^−2 mM", "value": "6.0 (NZ) mm"}, {"measurement": "Diameter of the zone of growth inhibition", "setting": "[3]; 5.7 × 10^−3 mM", "value": "6.0 (NZ) mm"}, {"measurement": "Diameter of the zone of growth inhibition", "setting": "Escherichia coli HB101 [4]; 5.7 × 10^0 mM", "value": 12.5, "unit": "mm"}, {"measurement": "Diameter of the zone of growth inhibition", "setting": "Escherichia coli HB101 [4]; 5.7 × 10^1 mM", "value": 22.0, "unit": "mm"}, {"measurement": "Diameter of the zone of growth inhibition", "setting": "Escherichia coli HB101 [4]; 5.7 × 10^−1 mM", "value": 10.0, "unit": "mm"}, {"measurement": "Diameter of the zone of growth inhibition", "setting": "Escherichia coli HB101 [4]; 5.7 × 10^−2 mM", "value": 9.0, "unit": "mm"}, {"measurement": "Diameter of the zone of growth inhibition", "setting": "Escherichia coli HB101 [4]; 5.7 × 10^−3 mM", "value": 8.0, "unit": "mm"}, {"measurement": "MIC", "setting": "[5]", "value": "8.78 × 10^−1 μg/ml and 1.05 × 10^−3 mM"}, {"measurement": "Relative to AgNO3", "setting": "[5]", "value": 70.10}, {"measurement": "MIC", "setting": "Bacillus subtilis W168 [6]", "value": "8.70 × 10^−2 μg/ml and 1.04 × 10^−4 mM"}, {"measurement": "Relative to AgNO3", "setting": "Bacillus subtilis W168 [6]", "value": 1413.46}, {"measurement": "MIC", "setting": "[7]", "value": "17.56 μg/ml and 2.1 × 10^−2 mM"}, {"measurement": "sensitivity of the bacteria to the compound (in words)", "setting": "[7]", "value": "most sensitive"}, {"measurement": "Relative to AgNO3", "setting": "[7]", "value": "8.76 × 10^−1"}, {"measurement": "MIC", "setting": "Escherichia coli HB101 [8]", "value": "8.78 μg/ml and 1.00 × 10^−2 mM"}, {"measurement": "sensitivity of the bacteria to the compound (in words)", "setting": "Escherichia coli HB101 [8]", "value": "most sensitive"}, {"measurement": "Relative to AgNO3", "setting": "Escherichia coli HB101 [8]", "value": 5.89}, {"measurement": "antimicrobial activity (in words)", "setting": "[9]", "value": "Effective"}]}
{"smiles": "O=[N+]([O-])[O-].[Ag+]", "note": "[AgNO3, reference compound]", "values": [{"measurement": "Diameter of the zone of growth inhibition", "setting": "[1]; [10]", "value": "6.0 (NZ) mm"}, {"measurement": "Diameter of the zone of growth inhibition", "setting": "[1]; [11]", "value": 7.0, "unit": "mm"}, {"measurement": "Diameter of the zone of growth inhibition", "setting": "[1]; [12]", "value": 8.5, "unit": "mm"}, {"measurement": "Diameter of the zone of growth inhibition", "setting": "[1]; [13]", "value": 9.0, "unit": "mm"}, {"measurement": "Diameter of the zone of growth inhibition", "setting": "[1]; [14]", "value": 10.5, "unit": "mm"}, {"measurement": "Diameter of the zone of growth inhibition", "setting": "Bacillus subtilis W168 [2]; [10]", "value": 9.0, "unit": "mm"}, {"measurement": "Diameter of the zone of growth inhibition", "setting": "Bacillus subtilis W168 [2]; [11]", "value": 9.5, "unit": "mm"}, {"measurement": "Diameter of the zone of growth inhibition", "setting": "Bacillus subtilis W168 [2]; [12]", "value": 13.0, "unit": "mm"}, {"measurement": "Diameter of the zone of growth inhibition", "setting": "Bacillus subtilis W168 [2]; [13]", "value": 13.0, "unit": "mm"}, {"measurement": "Diameter of the zone of growth inhibition", "setting": "Bacillus subtilis W168 [2]; (printed 5.9 × 10^−2 mM)", "value": 16.0, "unit": "mm"}, {"measurement": "Diameter of the zone of growth inhibition", "setting": "[3]; [10]", "value": "6.0 (NZ) mm"}, {"measurement": "Diameter of the zone of growth inhibition", "setting": "[3]; [11]", "value": "6.0 (NZ) mm"}, {"measurement": "Diameter of the zone of growth inhibition", "setting": "[3]; [12]", "value": 9.5, "unit": "mm"}, {"measurement": "Diameter of the zone of growth inhibition", "setting": "[3]; [13]", "value": 12.5, "unit": "mm"}, {"measurement": "Diameter of the zone of growth inhibition", "setting": "[3]; [14]", "value": 16.0, "unit": "mm"}, {"measurement": "Diameter of the zone of growth inhibition", "setting": "Escherichia coli HB101 [4]; [10]", "value": 7.0, "unit": "mm"}, {"measurement": "Diameter of the zone of growth inhibition", "setting": "Escherichia coli HB101 [4]; [11]", "value": 8.5, "unit": "mm"}, {"measurement": "Diameter of the zone of growth inhibition", "setting": "Escherichia coli HB101 [4]; [12]", "value": 13.0, "unit": "mm"}, {"measurement": "Diameter of the zone of growth inhibition", "setting": "Escherichia coli HB101 [4]; [13]", "value": 14.0, "unit": "mm"}, {"measurement": "Diameter of the zone of growth inhibition", "setting": "Escherichia coli HB101 [4]; [14]", "value": 15.0, "unit": "mm"}, {"measurement": "MIC", "setting": "[5]", "value": "12.50 μg/ml and 7.36 × 10^−2 mM"}, {"measurement": "Relative to AgNO3", "setting": "[5]", "value": 1.00}, {"measurement": "MIC", "setting": "Bacillus subtilis W168 [6]", "value": "25.00 μg/ml and 1.47 × 10^−1 mM"}, {"measurement": "Relative to AgNO3", "setting": "Bacillus subtilis W168 [6]", "value": 1.00}, {"measurement": "MIC", "setting": "[7]", "value": "3.12 μg/ml and 1.84 × 10^−2 mM"}, {"measurement": "Relative to AgNO3", "setting": "[7]", "value": 1.00}, {"measurement": "MIC", "setting": "Escherichia coli HB101 [8]", "value": "10.0 μg/ml and 5.89 × 10^−2 mM"}, {"measurement": "Relative to AgNO3", "setting": "Escherichia coli HB101 [8]", "value": 1.00}]}
